{
  "source": "patent US10358434B2",
  "about": "“2-(3-pyridinyl)-1H-benzimidazole derivative compound and medicament containing same” (NIHON MEDI-PHYSICS CO., LTD., priority 2014, dated 2019)",
  "key": {"[1]": {"assay": "Plasma stability evaluation (TLC analysis)", "type": "in vitro ADME", "details": "37° C., 60 minutes, TLC analysis", "in_short": "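Radiolabelled compounds were incubated in heparin-treated pooled normal human plasma at 37° C for 60 minutes. After methanol deproteinization and centrifugation, stability was assessed by TLC under the conditions used for each compound's synthesis.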"}, "[2]": {"test_system": "human adrenal gland section expressing aldosterone-producing adenoma", "assay": "In vitro autoradiography using human adrenal adenoma", "type": "binding", "details": "section of FIG. 17(b)", "in_short": "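Frozen 7-μm sections of human adrenal bearing aldosterone-producing adenoma were immersed 10 min in radioligand (5-33 kBq/mL) in PBS with 1% fatty-acid-free BSA, washed, then exposed to imaging plates for 16-20 h. Equal-area ROI PSL in adenoma (B2) versus normal cortex (B1) gave B2/B1, corrected for nuclide half-life, added activity and exposure time.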"}, "[3]": {"assay": "In vivo kinetics experiment (radioactivity distribution)", "set-up": "species or system Wistar male rat", "details": "rat i.v., mean ± SD", "in_short": "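Male Wistar rats (9 weeks) under isoflurane received approximately 1 to 3.7 MBq radiotracer in saline with 1 w/v % ascorbic acid by tail-vein injection. At 10, 30 and 60 min, rats were exsanguinated; blood, organs and remaining body weighed and counted, giving % ID/g and adrenal-to-tissue ratios.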"}},
  "data": [
    {"smiles": "Cn1c(-c2cncc(Cn3ccnc3)c2)nc2ccc([123I])cc21", "note": "[[^123I] 607, 2-[5-{(1H-imidazol-1-yl)methyl}pyridin-3-yl]-6-[^123I]iodo-1-methyl-1H-benzo[d]imidazole]", "values": [
      {"measurement": "Radiochemical purity after incubation in human plasma", "setting": "[1]", "value": 84, "unit": "%"},
      {"measurement": "B2/B1 accumulation ratio", "setting": "[2]", "value": 0.90},
      {"measurement": "B2 (PSL value, aldosterone-producing adenoma)", "setting": "[2]; site 71b", "value": 5332},
      {"measurement": "B1 (PSL value, normal adrenal cortex)", "setting": "[2]; site 72b", "value": 5945},
      {"measurement": "Adrenal gland/blood ratio of radioactivity accumulation", "setting": "[3]; 10 min after administration", "value": "64.15 ± 4.03"},
      {"measurement": "Adrenal gland/fat ratio of radioactivity accumulation", "setting": "[3]; 10 min after administration", "value": "92.36 ± 15.53"},
      {"measurement": "Adrenal gland/kidney ratio of radioactivity accumulation", "setting": "[3]; 10 min after administration", "value": "5.73 ± 1.00"},
      {"measurement": "Adrenal gland/liver ratio of radioactivity accumulation", "setting": "[3]; 10 min after administration", "value": "3.85 ± 0.67"},
      {"measurement": "Adrenal gland/muscle ratio of radioactivity accumulation", "setting": "[3]; 10 min after administration", "value": "64.58 ± 8.21"},
      {"measurement": "Adrenal gland/small intestine ratio of radioactivity accumulation", "setting": "[3]; 10 min after administration", "value": "3.95 ± 0.40"},
      {"measurement": "Radioactivity distribution Adrenal gland", "setting": "[3]; 10 min after administration", "value": "11.13 ± 0.88", "unit": "% ID/g"},
      {"measurement": "Radioactivity distribution Bladder (including urine)", "setting": "[3]; 10 min after administration", "value": "1.20 ± 0.71", "unit": "% ID/g"},
      {"measurement": "Radioactivity distribution Blood", "setting": "[3]; 10 min after administration", "value": "0.17 ± 0.02", "unit": "% ID/g"},
      {"measurement": "Radioactivity distribution Fat", "setting": "[3]; 10 min after administration", "value": "0.12 ± 0.02", "unit": "% ID/g"},
      {"measurement": "Radioactivity distribution Femur", "setting": "[3]; 10 min after administration", "value": "0.86 ± 0.02", "unit": "% ID/g"},
      {"measurement": "Radioactivity distribution Heart", "setting": "[3]; 10 min after administration", "value": "0.66 ± 0.03", "unit": "% ID/g"},
      {"measurement": "Radioactivity distribution Kidney", "setting": "[3]; 10 min after administration", "value": "1.96 ± 0.19", "unit": "% ID/g"},
      {"measurement": "Radioactivity distribution Large intestine", "setting": "[3]; 10 min after administration", "value": "0.12 ± 0.02", "unit": "% ID/g"},
      {"measurement": "Radioactivity distribution Liver", "setting": "[3]; 10 min after administration", "value": "2.93 ± 0.40", "unit": "% ID/g"},
      {"measurement": "Radioactivity distribution Lung", "setting": "[3]; 10 min after administration", "value": "0.90 ± 0.07", "unit": "% ID/g"},
      {"measurement": "Radioactivity distribution Muscle (lower limbs)", "setting": "[3]; 10 min after administration", "value": "0.17 ± 0.02", "unit": "% ID/g"},
      {"measurement": "Radioactivity distribution Remaining whole body", "setting": "[3]; 10 min after administration", "value": "0.27 ± 0.03", "unit": "% ID/g"},
      {"measurement": "Radioactivity distribution Small intestine", "setting": "[3]; 10 min after administration", "value": "2.82 ± 0.12", "unit": "% ID/g"},
      {"measurement": "Radioactivity distribution Spleen", "setting": "[3]; 10 min after administration", "value": "4.93 ± 0.56", "unit": "% ID/g"},
      {"measurement": "Radioactivity distribution Stomach", "setting": "[3]; 10 min after administration", "value": "0.88 ± 0.20", "unit": "% ID/g"},
      {"measurement": "Radioactivity distribution Testis", "setting": "[3]; 10 min after administration", "value": "0.06 ± 0.01", "unit": "% ID/g"},
      {"measurement": "Radioactivity distribution Whole brain", "setting": "[3]; 10 min after administration", "value": "0.03 ± 0.00", "unit": "% ID/g"},
      {"measurement": "Adrenal gland/blood ratio of radioactivity accumulation", "setting": "[3]; 30 min after administration", "value": "163.89 ± 22.78"},
      {"measurement": "Adrenal gland/fat ratio of radioactivity accumulation", "setting": "[3]; 30 min after administration", "value": "109.60 ± 14.02"},
      {"measurement": "Adrenal gland/kidney ratio of radioactivity accumulation", "setting": "[3]; 30 min after administration", "value": "12.63 ± 4.53"},
      {"measurement": "Adrenal gland/liver ratio of radioactivity accumulation", "setting": "[3]; 30 min after administration", "value": "15.55 ± 2.37"},
      {"measurement": "Adrenal gland/muscle ratio of radioactivity accumulation", "setting": "[3]; 30 min after administration", "value": "114.11 ± 13.20"},
      {"measurement": "Adrenal gland/small intestine ratio of radioactivity accumulation", "setting": "[3]; 30 min after administration", "value": "2.89 ± 0.23"},
      {"measurement": "Radioactivity distribution Adrenal gland", "setting": "[3]; 30 min after administration", "value": "14.61 ± 1.60", "unit": "% ID/g"},
      {"measurement": "Radioactivity distribution Bladder (including urine)", "setting": "[3]; 30 min after administration", "value": "2.79 ± 0.51", "unit": "% ID/g"},
      {"measurement": "Radioactivity distribution Blood", "setting": "[3]; 30 min after administration", "value": "0.09 ± 0.00", "unit": "% ID/g"},
      {"measurement": "Radioactivity distribution Fat", "setting": "[3]; 30 min after administration", "value": "0.13 ± 0.01", "unit": "% ID/g"},
      {"measurement": "Radioactivity distribution Femur", "setting": "[3]; 30 min after administration", "value": "0.98 ± 0.16", "unit": "% ID/g"},
      {"measurement": "Radioactivity distribution Heart", "setting": "[3]; 30 min after administration", "value": "0.54 ± 0.05", "unit": "% ID/g"},
      {"measurement": "Radioactivity distribution Kidney", "setting": "[3]; 30 min after administration", "value": "1.24 ± 0.36", "unit": "% ID/g"},
      {"measurement": "Radioactivity distribution Large intestine", "setting": "[3]; 30 min after administration", "value": "0.12 ± 0.01", "unit": "% ID/g"},
      {"measurement": "Radioactivity distribution Liver", "setting": "[3]; 30 min after administration", "value": "0.94 ± 0.06", "unit": "% ID/g"},
      {"measurement": "Radioactivity distribution Lung", "setting": "[3]; 30 min after administration", "value": "0.72 ± 0.05", "unit": "% ID/g"},
      {"measurement": "Radioactivity distribution Muscle (lower limbs)", "setting": "[3]; 30 min after administration", "value": "0.13 ± 0.00", "unit": "% ID/g"},
      {"measurement": "Radioactivity distribution Remaining whole body", "setting": "[3]; 30 min after administration", "value": "0.27 ± 0.03", "unit": "% ID/g"},
      {"measurement": "Radioactivity distribution Small intestine", "setting": "[3]; 30 min after administration", "value": "5.06 ± 0.42", "unit": "% ID/g"},
      {"measurement": "Radioactivity distribution Spleen", "setting": "[3]; 30 min after administration", "value": "6.69 ± 1.24", "unit": "% ID/g"},
      {"measurement": "Radioactivity distribution Stomach", "setting": "[3]; 30 min after administration", "value": "1.17 ± 0.29", "unit": "% ID/g"},
      {"measurement": "Radioactivity distribution Testis", "setting": "[3]; 30 min after administration", "value": "0.09 ± 0.02", "unit": "% ID/g"},
      {"measurement": "Radioactivity distribution Whole brain", "setting": "[3]; 30 min after administration", "value": "0.02 ± 0.00", "unit": "% ID/g"},
      {"measurement": "Adrenal gland/blood ratio of radioactivity accumulation", "setting": "[3]; 60 min after administration", "value": "241.20 ± 39.48"},
      {"measurement": "Adrenal gland/fat ratio of radioactivity accumulation", "setting": "[3]; 60 min after administration", "value": "194.91 ± 44.02"},
      {"measurement": "Adrenal gland/kidney ratio of radioactivity accumulation", "setting": "[3]; 60 min after administration", "value": "18.18 ± 3.94"},
      {"measurement": "Adrenal gland/liver ratio of radioactivity accumulation", "setting": "[3]; 60 min after administration", "value": "27.59 ± 4.15"},
      {"measurement": "Adrenal gland/muscle ratio of radioactivity accumulation", "setting": "[3]; 60 min after administration", "value": "177.15 ± 43.41"},
      {"measurement": "Adrenal gland/small intestine ratio of radioactivity accumulation", "setting": "[3]; 60 min after administration", "value": "3.39 ± 0.53"},
      {"measurement": "Radioactivity distribution Adrenal gland", "setting": "[3]; 60 min after administration", "value": "18.47 ± 2.05", "unit": "% ID/g"},
      {"measurement": "Radioactivity distribution Bladder (including urine)", "setting": "[3]; 60 min after administration", "value": "2.99 ± 1.26", "unit": "% ID/g"},
      {"measurement": "Radioactivity distribution Blood", "setting": "[3]; 60 min after administration", "value": "0.08 ± 0.01", "unit": "% ID/g"},
      {"measurement": "Radioactivity distribution Fat", "setting": "[3]; 60 min after administration", "value": "0.10 ± 0.02", "unit": "% ID/g"},
      {"measurement": "Radioactivity distribution Femur", "setting": "[3]; 60 min after administration", "value": "1.17 ± 0.10", "unit": "% ID/g"},
      {"measurement": "Radioactivity distribution Heart", "setting": "[3]; 60 min after administration", "value": "0.43 ± 0.08", "unit": "% ID/g"},
      {"measurement": "Radioactivity distribution Kidney", "setting": "[3]; 60 min after administration", "value": "1.04 ± 0.19", "unit": "% ID/g"},
      {"measurement": "Radioactivity distribution Large intestine", "setting": "[3]; 60 min after administration", "value": "0.16 ± 0.03", "unit": "% ID/g"},
      {"measurement": "Radioactivity distribution Liver", "setting": "[3]; 60 min after administration", "value": "0.67 ± 0.04", "unit": "% ID/g"},
      {"measurement": "Radioactivity distribution Lung", "setting": "[3]; 60 min after administration", "value": "0.65 ± 0.15", "unit": "% ID/g"},
      {"measurement": "Radioactivity distribution Muscle (lower limbs)", "setting": "[3]; 60 min after administration", "value": "0.11 ± 0.02", "unit": "% ID/g"},
      {"measurement": "Radioactivity distribution Remaining whole body", "setting": "[3]; 60 min after administration", "value": "0.26 ± 0.01", "unit": "% ID/g"},
      {"measurement": "Radioactivity distribution Small intestine", "setting": "[3]; 60 min after administration", "value": "5.48 ± 0.49", "unit": "% ID/g"},
      {"measurement": "Radioactivity distribution Spleen", "setting": "[3]; 60 min after administration", "value": "6.95 ± 0.95", "unit": "% ID/g"},
      {"measurement": "Radioactivity distribution Stomach", "setting": "[3]; 60 min after administration", "value": "1.52 ± 0.61", "unit": "% ID/g"},
      {"measurement": "Radioactivity distribution Testis", "setting": "[3]; 60 min after administration", "value": "0.11 ± 0.02", "unit": "% ID/g"},
      {"measurement": "Radioactivity distribution Whole brain", "setting": "[3]; 60 min after administration", "value": "0.02 ± 0.00", "unit": "% ID/g"}
    ]}
  ]
}
